Results taken from patent US10288604B2, “Method for imaging cell using fluorescence-labeled sugar derivative having coumarin derivative bound thereto, and imaging agent” (HIROSAKI UNIVERSITY, priority 2012, dated 2019).

Tested on: mouse insulinoma cells (MIN6)
Assay: Uptake into MIN6 cells and influence of glucose transport inhibitors (fluorescent microplate reader)
Type: cell-based
Protocol: Cryopreserved MIN6 cells (cells donated from Professor Miyazaki Junichi of Osaka University and cultured 5 to 8 passages) were subjected to culture according to an ordinary method, and cultures at 7 to 9 passages were used in experiments.
NaCl 129.0 mM, KCl 4.75 mM, KH2 PO4 1.19 mM, MgSO4.7H2O 1.19 mM, CaCl2.2H2O 1.0 mM, NaHCO3 5.02 mM, D-Glucose 5.6 mM, HEPES 10 mM (pH was adjusted to 7.35 with 1M NaOH). For inhibiting entrance and elimination of a fluorescently labeled glucose via gap junction/hemichannel, 0.1 mM Carbenoxolone (SIGMA #C4790) was added. This KRB solution was used as a solution for preparing a 2-PBLG solution.
2-PBDG and 2-PBLG were charged into wells at the third column and the fifth column, respectively, using a 8-channel pipette. Before administration, the autofluorescence of each well was measured beforehand by a fluorescent micro plate reader (Flex Station, manufactured by Molecular Device). The measurement conditions include Bottom Read, Ex 401 nm, Em 453 nm, Cut off 420 nm, Averaging 3, and high sensitivity of Photomultiplier. In the measurement method, Well Scan Mode was used. In Well Scan Mode, the inside of one well was divided into 9 regions of interest (diameter: 1.5 mm) and measurement was performed each independently.
Next, in wells (3C, 3E, 3G) for measuring the effect of a glucose transport inhibitor phloretin, phloretin (final 150 μM) was administered beforehand from 5 minutes prior to administration of 2-PBDG, while KRB was added to other wells (3B, 3D, 3F). Similar operation was also conducted on the fifth column where 2-PBLG was to be administered. 2-PBDG and 2-PBLG were administrated at 37° C. for 10 minutes.
After completion of administration, a diluting operation of the fluorescence solution in the well using 300 μL of a KRB solution was repeated set times each for 30 seconds. The repetition time was determined so that the fluorescence intensity detected by wells of A-th row and H-th row set as a control group was equivalent to the fluorescence intensity of a blank well containing no cell, and complete washout was confirmed in every experiment. In the case of 2-PBDG and 2-PBLG, this washout process needed 8 minutes, thus, measurement of fluorescence after administration was carried out 9 minutes after.
According to this method, even if cells having undergone a loss of the plasma membrane contacted 2-PBDG and 2-PBLG and once took up these compounds into themselves, it is judged that contribution of the increase in the fluorescence intensity to the whole observation area was ignorable level since these compounds had already been washed out of the cells when performing the measurement. This was supported by a pharmacological inhibition experiment separately in which the increase in the fluorescence intensity almost completely disappeared in the presence of an inhibitor. The above-described method was conducted in the same manner also when other inhibitor, for example, cytochalasin B (10 μM) was added.
The change of fluorescence intensity by administration of a D-glucose derivative (2-PBDG), an L-glucose derivative (2-PBLG) and PB—NH2 prepared by amidating Pacific Blue (PB) chromophore group to MIN6 cells on day of 10 of culture and the effect by a glucose transport inhibitor were confirmed in the same manner as in Example 4. PB—NH2 has the following structure (Ex max. 402 nm, Em max. 451 nm).
An experiment was conducted in the same manner as in Example 4.
The experiment was carried out 3 times independently, and the same results were obtained in all cases. In the experiment of administration of 2-PBDM, excitation occurred at a maximum excitation light wavelength of 404 nm and fluorescence was acquired at a maximum emission wavelength of 453 nm.

In the case of `O=C(NC1C(O)OC(CO)[C@H](O)C1O)c1cc2cc(F)c(O)c(F)c2oc1=O` (stereo partly drawn) [2-PBLG, 2-Deoxy-2-((6,8-difluoro-7-hydroxycoumarin-3-yl)carboxamido)-L-glucose], the “decreased value of fluorescence intensity owing to phloretin (average)” value (100 μM derivative, 150 μM phloretin, MIN6 day 10, increase without phloretin as reference) is reported as 20.0%, the “effect of phloretin on increase in fluorescence intensity (in words)” value (100 μM derivative, phloretin 150 μM, MIN6 day 10) is reported as “inhibited the increase in the fluorescence intensity by 2-PBLG slightly” and the “difference between fluorescence intensity of 2-PBDG and of 2-PBLG” value (100 μM each, absence of phloretin, 2-PBDG = 100%) is reported as “no significant difference”. The “fluorescence intensity after administration as compared with that before administration” value (100 μM, MIN6 on day 10 of culture, Ex 401 nm, Em 453 nm) was “increases significantly”.
